In paper PMC10987949, “Inhibition of HIV-1 release by ADAM metalloproteinase inhibitors” (Frontiers in Microbiology, 2024):
Entries after “also recorded” stand apart in the source; their conditions may differ. Where a SMILES comes first, the peptide text is derived from it. [ ]: non-standard residue; d: D form. The star is where a group is joined. Sta = CC(C)C[C@H](N)[C@@H](O)CC(=O)O; Isovaleryl = CC(C)CC(=O)*; 4Abz = Nc1ccc(C(=O)O)cc1; Cbz = O=C(OCc1ccccc1)*; CH2Cl = ClC*; NHOH = ON*

System: CD62L shedding
Test: Soluble CD62L ELISA, anti-CD3/PHA stimulated PBMC or CD4 T cells
Type: cell-based, human
Details: 10 μM compound; stimulated cells; ELISA
Experimental: PBMC from de-identified healthy donors were obtained with informed consent from the Department of Transfusion Medicine, National Institutes of Health under Biological reagent Registry RD-14-IX-12 approved by NIH biological safety board. […] IL-2 was added at a final concentration of 20 U/mL. CD3 antibody okt3 was used at ~0.2 μg/mL final concentration. […] Supernatants were collected and assessed using either the CD62L or TNF-α Duo Set ELISA kit according to manufacturer’s instructions (R&D Systems, Inc.). The viability of cells treated with compounds was assessed by acridine orange / propidiom iodide (AO/PI Logosbio catalog F23001) staining using Luna-FL cell counter following the manufacture’s instruction.^2

Row | Molecule | Shedding inhibition Stimulated
1 | O=c1oc(Cl)c(Cl)c2ccccc12 [3,4-DCIC, 3,4-Dichloroisocouman] | − (0% inhibition)
2 | NCCc1ccc(S(=O)(=O)F)cc1 [AEBSF] | − (0% inhibition)
3 | CC(C)(C)OC(=O)N[C@H]1[C@@H]2CNC[C@@H]21 [CP-101537, N-(1a,5a,6a)-3-Azabicyclo[3.1.0]hex-6-yl-carbamic acid 1,1-dimethylethyl ester] | − (0% inhibition)
4 | CC(C)C[C@@H](NC(=O)[C@@H]1CCCN1C(=O)CNC(=O)c1ccc(N)cc1)C(=O)N[C@@H](C)C(=O)NO [Compound 4-m-GPDLA, 4-aminobenzoyl-Gly-Pro-D-Leu-ala hydroxamic acid] (H-[4Abz]GP[dL]A-{NHOH}) | − (0% inhibition)
5 | CC(C)C[C@H](NC(=O)[C@H]1O[C@@H]1C(=O)O)C(=O)NCCCCN=C(N)N [Compound E64] | − (0% inhibition)
6 | CC[C@H](C)[C@H](NC(C)=O)C(=O)N[C@@H](CCC(=O)O)C(=O)N[C@H](C(=O)N[C@H](C=O)CC(=O)O)[C@@H](C)O [GrzB II] (Ac-IETD-aldehyde) | − (0% inhibition)
7 | CC[C@H](C)[C@H](NC(C)=O)C(=O)N[C@@H](CCC(=O)O)C(=O)N1CCC[C@H]1C(=O)N[C@H](C=O)CC(=O)O [GrzB IV] (Ac-IEPD-aldehyde) | − (0% inhibition)
8 | C[C@H](NC(=O)OCc1ccccc1)C(=O)N[C@@H](C)C(=O)N[C@@H](CC(=O)O)C(=O)CCl [GrzB I] (Cbz-Ala-Ala-Asp-CH2Cl) | − (0% inhibition)
9 | NC(=O)CI [Iodoacetamide] | − (0% inhibition)
10 | COc1ccc(S(=O)(=O)N(CC(=O)NO)CC(C)C)cc1 [NNGH, N-Isobutyl-N-(4-methoxyphenylsulfonyl)glycyl hydroxamic acid] | − (0% inhibition)
11 | O=S(=O)(F)Cc1ccccc1 [PMSF] | − (0% inhibition)
12 | O=S(=O)(CC1CS1)c1ccc(Oc2ccccc2)cc1 (stereo not shown) [SB-3CT] | − (0% inhibition)
13 | CC(C)C[C@H](CC(=O)NO)C(=O)N[C@@H](Cc1ccc2ccccc2c1)C(=O)N[C@@H](C)C(N)=O [TAPI-0] | ++ (>50%)
14 | CC(C)C[C@H](CC(=O)NO)C(=O)N[C@@H](Cc1ccc2ccccc2c1)C(=O)N[C@@H](C)C(=O)NCCN [TAPI-1] | ++ (>50%)
15 | CC(C)C[C@H](CC(=O)NO)C(=O)N[C@H](C(=O)N[C@@H](C)C(=O)NCCN)C(C)(C)C [TAPI-2] | ++ (>50%)
16 | Cc1cc(CCC[C@H](CC(=O)NO)C(=O)N[C@H](C(=O)N[C@H](C)c2ccccc2)C(C)(C)C)ccc1-c1ccccc1 [UK-356618, (2R)-N1-[(1S)-2,2-Dimethyl-1-({[(1R)-1-phenylethyl]amino}carbonyl)propyl]-2-{3-[(3-methyl-4-phenyl)-phenyl]propyl}-(N4-hydroxy)butanediamide] | − (0% inhibition)
17 | Aprotinin | − (0% inhibition)
18 | Cystatin | − (0% inhibition)

Same assay, conditions: 100 μM compound; stimulated cells; ELISA

Row | Molecule | Shedding inhibition Stimulated
19 | CCOCOC[C@H](C[C@H](C)C(=O)NO)NC(=O)c1ccc(Oc2ccccc2)cc1 [ONO-4817] | +/− (<20)

Same assay, conditions: Homo sapiens; 10 μM compound; stimulated cells; ELISA

Row | Molecule | inhibition at 10 µM [%]
20 | CC(C)ON([C@@H](C(=O)NO)C(C)C)S(=O)(=O)c1ccc(-c2ccccc2)cc1 [ARP 101, (2R)-2-[([1,1′-Biphenyl]-4-ylsulfonyl)(1-methylethoxy)amino]-N-hydroxy-3-methyl-butanamide] | < 20
21 | CC(C)C[C@H](NC(=O)[C@@H](O)[C@H](N)Cc1ccccc1)C(=O)O [Bestatin] | 0
22 | CC(C)(NS(=O)(=O)c1ccc(Oc2ccc(F)cc2)cc1)C(=O)NO [CP-471474, 2-[[[4-(4-Fluorophenoxy)phenyl]sulfonyl]amino]-N-hydrox y-2-methylpropanamide] | 0
23 | OB(O)c1ccc2[nH]ccc2c1 [Compound 5-Indolylb, 5-indolylboronic acid] | 0
24 | CC1(c2ccccc2)NC(=O)NC1=O (stereo not shown) [Compound 5-m-5-p, 5-methyl-5-phenylhydantoin] | 0
25 | C[C@H]1c2cccc(O)c2C(=O)C2=C(O)[C@]3(O)C(=O)C(C(N)=O)=C(O)[C@@H](N(C)C)[C@@H]3[C@@H](O)[C@@H]21 [Doxycycline] | 0
26 | CC(=O)N[C@@H](CC(C)C)C(=O)N[C@@H](CC(C)C)C(=O)N[C@H](C=O)CCCNC(=N)N [Leupeptin] | 0
27 | CCCC(C)NC(=O)c1ccc(Cl)c(Cl)c1 (stereo not shown) [NSC405020, 3,4-Dichloro-N-(1-methylbutyl)-benzamide] | 0
28 | N=C(N)c1ccc2cc(OC(=O)c3ccc(N=C(N)N)cc3)ccc2c1 [Nafamostat] | 0
29 | CC(C)[C@H](NS(=O)(=O)c1ccc(-c2ccc(Br)cc2)cc1)C(=O)O [PD166793, (S)-2-(4′-Bromo-biphenyl-4-sulfonylamino)-3-methyl-butyric acid hydrate] | 0
30 | CC(C)CC(=O)N[C@H](C(=O)N[C@H](C(=O)N[C@@H](CC(C)C)[C@@H](O)CC(=O)N[C@@H](C)C(=O)N[C@@H](CC(C)C)[C@@H](O)CC(=O)O)C(C)C)C(C)C [Pepstatin A] (Isovaleryl-VV[Sta]A[Sta]-OH) | 0

Same assay, conditions: stimulated PBMC or CD4 T cells, ELISA

Row | Molecule | effect on CD62L shedding / soluble CD62L
31 | O=c1oc(Cl)c(Cl)c2ccccc12 [3,4-DCIC, 3,4-Dichloroisocouman] | significantly increased soluble CD62L concentration; also recorded: enhanced CD62L shedding
32 | TAPI | suppressed CD62L shedding

Same assay, conditions: titration of HAART compounds, concentration range tested

Row | Molecule | effect on CD62L shedding from stimulated PBMC
33 | Cc1ccnc2c1NC(=O)c1cccnc1N2C1CC1 [nevirapine] | did not inhibit CD62L shedding
34 | Cc1nnc(C(=O)NC(C)(C)c2nc(C(=O)NCc3ccc(F)cc3)c(O)c(=O)n2C)o1 [raltegravir] | did not inhibit CD62L shedding

System: CD62L shedding
Test: Soluble CD62L ELISA, unstimulated PBMC
Type: cell-based, human
Details: 10 μM compound; non-stimulated cells; ELISA
Experimental: PBMC from de-identified healthy donors were obtained with informed consent from the Department of Transfusion Medicine, National Institutes of Health under Biological reagent Registry RD-14-IX-12 approved by NIH biological safety board. CD8-depleted PBMCs, either stimulated or non-stimulated with 10 μg/mL phytohaemagglutinin (PHA) or anti-CD3 antibody (with or without conjugated beads), were plated at 2×10^6 cells/ml in 48 well plates in RPMI 1640 + 10%FBS (R10) to a final volume of 1 mL in each well. IL-2 was added at a final concentration of 20 U/mL. CD3 antibody okt3 was used at ~0.2 μg/mL final concentration. […] Supernatants were collected and assessed using either the CD62L or TNF-α Duo Set ELISA kit according to manufacturer's instructions (R&D Systems, Inc.). The viability of cells treated with compounds was assessed by acridine orange / propidiom iodide (AO/PI Logosbio catalog F23001) staining using Luna-FL cell counter following the manufacture's instruction.^2 […] Supplemental Figure 1. CD62L shedding from unstimulated PBMC. A) Soluble CD62L in the supernatant of unstimulated PBMC was measured By ELISA (R&D systems, Inc) after 24 hour treatment in the presence of 10 μM of […]), aminopeptidase (AP) protease inhibitors, respectively, or their untreated controls. Statistics were calculated using unpaired parametric student t-test between individual treatment and DMSO control. […] B) Viability of PBMC treated with 10-500 μM of MMP inhibitors for 24hours. […] Untreated DMSO AEBSF 3,4-Dichloroisocouman Granzyme B Inhibitor II Granzyme B Inhibitor IV Aprotinin […] 3 4 CD62L shedding from unstimulated PBMC Soluble CD62L (ng/ml) Inhibitor Class […] GI254023X 10 GI254023X 100 […] GI254023X 1000 GW280264X 10 GW280264X 100 […] GW280264X 1000 Marimastat 10 Marimastat 100 Marimastat 250 […]

Row | Molecule | Shedding inhibition Non-stim.
35 | Cc1cc(CCC[C@H](CC(=O)NO)C(=O)N[C@H](C(=O)N[C@H](C)c2ccccc2)C(C)(C)C)ccc1-c1ccccc1 [UK-356618, (2R)-N1-[(1S)-2,2-Dimethyl-1-({[(1R)-1-phenylethyl]amino}carbonyl)propyl]-2-{3-[(3-methyl-4-phenyl)-phenyl]propyl}-(N4-hydroxy)butanediamide] | − (0% inhibition)

Same assay, conditions: 100 μM compound; non-stimulated cells; ELISA

Row | Molecule | Shedding inhibition Non-stim.
36 | CCOCOC[C@H](C[C@H](C)C(=O)NO)NC(=O)c1ccc(Oc2ccccc2)cc1 [ONO-4817] | + (20–50)

System: HIV-1BAL
Test: HIV-1BAL infection of CD8-depleted PBMC, FACS (intracellular p24, CD4, CD62L)
Type: cell-based
Details: HIV-1BAL infected cells
From the text: The use of healthy human peripheral blood mononuclear cells (PBMC) is approved by the Department of Transfusion Medicine at the Clinical Center of National Institutes of Health. The use of PBMC from HIV-1 infected individuals for the study was approved under protocol #02-I-0202 by the Institutional Review Board (IRB) of National Institutes of Health with written informed consent from all donors. Peripheral blood mononuclear cells (PBMCs) from anonymous healthy donors were isolated by Ficoll-Paque gradient, and cultured in RPMI 1640 supplemented with 10% FBS, 1%Penicillin/streptomycin, 1% HEPES buffer and 20 U/mL IL-2 (culture media); and stimulated with 0.2 μg/mL anti-CD3 antibody (okt3) for 2 days. CD8^+ T cells were depleted prior to infection using the Stemcell CD8 positive selection kit according to manufacturer’s instructions. CD8-depleted PBMCs were plated at 2×10^6 cells/ml in 48-well plates in 1 mL culture media with various inhibitors for 60 min prior to the addition of ~80 TCID50 HIV-1BAL or HIV-1LAI. Inhibitors were replenished during media change every 3 days. The infections were proceeded with or without inhibitors for 6 days or otherwise specified number of days and then analyzed by FACS staining using fluorescent labeled CD4-BV510, CD62L-APC and CD3-PEC7 antibodies (BD Biosciences). Cells were then washed and permeabilized with CytoFix/CytoPerm (BD Biosciences) solution before intracellular staining for HIV p24 antigen using FITC conjugated anti-p24 antibody clone KC57 (Beckman Coulter, catalog 6604665). All assays were performed with cell viabilities >80%. Replication competent HIV-1 viruses were obtained from the NIH AIDS Reagent Program^4, and expanded by infecting activated CD8-depleted PBMCs, and TCID50 was determined by p24 ELISA.

Row | Molecule | accumulation of infected CD4−/CD62L− T cells (loss of CD62L)
37 | CC(C)C[C@H](CC(=O)NO)C(=O)N[C@@H](Cc1ccc2ccccc2c1)C(=O)N[C@@H](C)C(N)=O [TAPI-0] | did not inhibit the accumulation

Same assay, conditions: day 6; 0.5μM compounds

Row | Molecule | p24 staining in HIV-1BAL infection of PBMC
38 | C[C@@H]1CCO[C@H]2Cn3cc(C(=O)NCc4ccc(F)cc4F)c(=O)c(O)c3C(=O)N12 [Doultegravir] | no significant staining

Same assay, conditions: day 7 post infection; compounds at 100 μM, GI254023X at 250 μM

Row | Molecule | effect on HIV-1BAL infection (intracellular p24)
39 | O=c1oc(Cl)c(Cl)c2ccccc12 [3,4-DCIC, 3,4-Dichloroisocouman] | did not enhance HIV-1 infection
40 | CC(C)C[C@H](CC(=O)NO)C(=O)N[C@@H](Cc1ccc2ccccc2c1)C(=O)N[C@@H](C)C(N)=O [TAPI-0] | fail to significantly suppress the viral infections
